We go through three compounds from ChEMBL document CHEMBL5696442, “Discovery of type II inhibitors of TGFβ-activated kinase 1 (TAK1) and mitogen-activated protein kinase kinase kinase kinase 2 (MAP4K2)” (J Med Chem, 2015).

Active and inactive are the calls of the source. The calls are words filed in the database; no cut-off is given here.

The test system of assay [1] is Hepatocyte growth factor receptor (Homo sapiens), P08581 [M1250T]. Nature of the assay: Inhibition of MET M1250T mutant (unknown origin) at 1 uM by Ambit Kinomescan binding assay relative to control.
Assay [2] has as its target Myosin light chain kinase 2, skeletal/cardiac muscle (Homo sapiens) (UniProt Q9H1R3). Nature of the assay: Inhibition of MYLK2 (unknown origin) at 1 uM by Ambit Kinomescan binding assay relative to control; values are per cent of control.
Assay [3] addresses SRSF protein kinase 1 (Homo sapiens) (UniProt Q96SB4). Nature of the assay: Inhibition of SRPK1 (unknown origin) at 10 uM by Ambit Kinomescan binding assay.
In assay [4] the target is T1, Dual specificity mitogen-activated protein kinase kinase 4 (Homo sapiens) (UniProt P45985).
T1 sequence (whole entry): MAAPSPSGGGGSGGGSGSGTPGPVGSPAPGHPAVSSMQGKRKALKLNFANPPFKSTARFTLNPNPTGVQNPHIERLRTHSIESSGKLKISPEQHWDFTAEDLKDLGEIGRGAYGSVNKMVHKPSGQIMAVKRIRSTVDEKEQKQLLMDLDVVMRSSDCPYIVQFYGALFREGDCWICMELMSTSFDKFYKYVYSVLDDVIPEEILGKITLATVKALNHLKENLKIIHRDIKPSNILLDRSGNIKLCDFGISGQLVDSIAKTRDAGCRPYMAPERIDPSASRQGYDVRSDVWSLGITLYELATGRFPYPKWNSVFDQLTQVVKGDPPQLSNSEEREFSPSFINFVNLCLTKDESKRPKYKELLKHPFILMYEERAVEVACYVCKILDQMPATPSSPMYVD
Briefly: Inhibition of MEK4 (unknown origin) at 10 uM by Ambit Kinomescan binding assay.

The nature of assay [5]: Inhibition of MLK1/4 K2 labeling site in human Huh-7 cells at 10 uM by KiNativ Profiling analysis relative to control. Conditions: condition cancer.
In assay [6] the target is T2, Myotonin-protein kinase (Homo sapiens) (UniProt Q09013).
T2 sequence (whole entry): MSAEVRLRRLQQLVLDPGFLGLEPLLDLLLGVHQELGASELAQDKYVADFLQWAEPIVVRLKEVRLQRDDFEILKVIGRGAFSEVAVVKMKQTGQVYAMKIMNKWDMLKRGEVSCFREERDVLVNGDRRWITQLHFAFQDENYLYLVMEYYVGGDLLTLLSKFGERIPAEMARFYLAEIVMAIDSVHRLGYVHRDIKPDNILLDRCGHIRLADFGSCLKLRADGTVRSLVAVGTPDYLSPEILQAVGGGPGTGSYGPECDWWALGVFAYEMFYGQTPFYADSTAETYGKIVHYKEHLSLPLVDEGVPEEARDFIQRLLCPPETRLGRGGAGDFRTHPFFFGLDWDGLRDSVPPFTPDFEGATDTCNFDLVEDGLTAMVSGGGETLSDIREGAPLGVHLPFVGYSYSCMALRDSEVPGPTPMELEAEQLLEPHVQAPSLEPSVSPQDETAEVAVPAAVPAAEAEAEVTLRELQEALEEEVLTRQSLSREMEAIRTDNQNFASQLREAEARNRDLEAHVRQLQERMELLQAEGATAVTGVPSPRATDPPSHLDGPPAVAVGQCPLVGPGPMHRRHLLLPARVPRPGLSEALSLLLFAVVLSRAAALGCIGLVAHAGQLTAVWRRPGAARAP
Briefly: Inhibition of DMPK (unknown origin) at 10 uM by Ambit Kinomescan binding assay.

Assay [7] deals with T3, Serine/threonine-protein kinase Sgk3 (Homo sapiens) (UniProt Q96BR1).
T3 sequence (whole entry): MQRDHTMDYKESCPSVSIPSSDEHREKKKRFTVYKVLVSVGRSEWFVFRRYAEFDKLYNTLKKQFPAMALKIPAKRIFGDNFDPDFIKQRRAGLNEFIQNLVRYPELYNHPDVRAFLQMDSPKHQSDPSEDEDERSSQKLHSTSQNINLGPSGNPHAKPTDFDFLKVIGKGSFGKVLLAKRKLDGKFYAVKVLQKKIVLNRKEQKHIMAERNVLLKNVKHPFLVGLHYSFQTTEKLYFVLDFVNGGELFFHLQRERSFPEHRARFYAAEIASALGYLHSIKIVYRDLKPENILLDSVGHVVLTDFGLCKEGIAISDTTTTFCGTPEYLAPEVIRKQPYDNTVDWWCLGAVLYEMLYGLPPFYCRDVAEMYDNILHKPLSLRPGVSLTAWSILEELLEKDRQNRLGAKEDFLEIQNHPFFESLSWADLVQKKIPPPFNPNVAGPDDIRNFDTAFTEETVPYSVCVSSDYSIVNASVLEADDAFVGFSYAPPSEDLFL
Nature of the assay: Inhibition of SGK3 Lys1 labeling site in human Huh-7 cell lysate at 1 uM by KiNativ Profiling analysis relative to control. The class given is subcellular.

The target in assay [8] is T4, Serine/threonine-protein kinase tousled-like 1 (Homo sapiens) (UniProt Q9UKI8).
T4 sequence (whole entry): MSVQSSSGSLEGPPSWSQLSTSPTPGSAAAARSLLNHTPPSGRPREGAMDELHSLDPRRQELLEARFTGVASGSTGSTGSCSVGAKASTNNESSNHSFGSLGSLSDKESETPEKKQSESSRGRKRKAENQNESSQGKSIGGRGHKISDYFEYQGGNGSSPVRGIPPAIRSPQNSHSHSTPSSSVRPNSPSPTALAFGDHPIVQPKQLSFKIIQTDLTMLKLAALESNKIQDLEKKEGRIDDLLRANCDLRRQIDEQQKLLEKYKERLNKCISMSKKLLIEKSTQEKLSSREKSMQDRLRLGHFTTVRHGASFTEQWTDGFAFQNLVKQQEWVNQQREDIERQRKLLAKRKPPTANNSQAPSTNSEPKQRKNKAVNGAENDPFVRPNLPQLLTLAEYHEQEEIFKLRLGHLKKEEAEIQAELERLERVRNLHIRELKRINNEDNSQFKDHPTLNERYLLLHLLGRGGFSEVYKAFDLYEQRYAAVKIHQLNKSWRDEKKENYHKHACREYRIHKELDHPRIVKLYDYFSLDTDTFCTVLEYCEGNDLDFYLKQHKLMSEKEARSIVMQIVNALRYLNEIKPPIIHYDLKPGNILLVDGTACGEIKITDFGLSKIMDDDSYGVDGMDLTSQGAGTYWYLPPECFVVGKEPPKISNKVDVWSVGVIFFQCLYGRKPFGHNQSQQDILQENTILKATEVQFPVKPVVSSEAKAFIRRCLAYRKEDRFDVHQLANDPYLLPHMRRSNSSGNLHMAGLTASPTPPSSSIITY
Nature of the assay: Inhibition of TLK1 Lys2 labeling site in human Huh-7 cell lysate at 1 uM by KiNativ Profiling analysis relative to control. Format: subcellular.

In assay [9] the target is DNA-PK/Ku70/Ku85 (Homo sapiens) (UniProt P78527+P12956+P13010). Nature of the assay: Inhibition of DNAPK ATP labeling site harbouring EHPFLVKGGEDLR in human Huh-7 cell lysate at 1 uM by KiNativ Profiling analysis relative to control. The class given is subcellular.
Assay [10] concerns the target Interleukin-1 receptor-associated kinase 1 (Homo sapiens) (UniProt P51617). Nature of the assay: Inhibition of IRAK1 Lys2 labeling site in human Huh-7 cell lysate at 1 uM by KiNativ Profiling analysis relative to control. The class given is subcellular.

Sequence of Myosin light chain kinase 2, skeletal/cardiac muscle (Homo sapiens) (Q9H1R3 whole entry): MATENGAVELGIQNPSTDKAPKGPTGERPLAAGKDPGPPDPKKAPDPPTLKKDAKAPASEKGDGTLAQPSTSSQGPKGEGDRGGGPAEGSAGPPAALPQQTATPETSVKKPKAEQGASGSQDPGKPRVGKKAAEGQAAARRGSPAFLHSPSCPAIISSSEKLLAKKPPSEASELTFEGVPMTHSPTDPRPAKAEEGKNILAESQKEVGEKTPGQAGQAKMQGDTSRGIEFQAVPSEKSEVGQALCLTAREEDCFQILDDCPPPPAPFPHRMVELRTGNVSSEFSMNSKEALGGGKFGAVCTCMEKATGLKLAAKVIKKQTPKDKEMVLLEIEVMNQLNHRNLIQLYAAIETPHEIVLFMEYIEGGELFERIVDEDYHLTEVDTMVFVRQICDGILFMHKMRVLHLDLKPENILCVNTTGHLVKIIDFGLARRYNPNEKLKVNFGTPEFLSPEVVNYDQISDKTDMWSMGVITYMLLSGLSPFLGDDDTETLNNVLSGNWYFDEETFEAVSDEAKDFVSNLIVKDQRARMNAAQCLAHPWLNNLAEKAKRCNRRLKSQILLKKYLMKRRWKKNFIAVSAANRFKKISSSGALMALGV
Sequence of Hepatocyte growth factor receptor (Homo sapiens), P08581 [M1250T] (P08581 whole entry M1250T): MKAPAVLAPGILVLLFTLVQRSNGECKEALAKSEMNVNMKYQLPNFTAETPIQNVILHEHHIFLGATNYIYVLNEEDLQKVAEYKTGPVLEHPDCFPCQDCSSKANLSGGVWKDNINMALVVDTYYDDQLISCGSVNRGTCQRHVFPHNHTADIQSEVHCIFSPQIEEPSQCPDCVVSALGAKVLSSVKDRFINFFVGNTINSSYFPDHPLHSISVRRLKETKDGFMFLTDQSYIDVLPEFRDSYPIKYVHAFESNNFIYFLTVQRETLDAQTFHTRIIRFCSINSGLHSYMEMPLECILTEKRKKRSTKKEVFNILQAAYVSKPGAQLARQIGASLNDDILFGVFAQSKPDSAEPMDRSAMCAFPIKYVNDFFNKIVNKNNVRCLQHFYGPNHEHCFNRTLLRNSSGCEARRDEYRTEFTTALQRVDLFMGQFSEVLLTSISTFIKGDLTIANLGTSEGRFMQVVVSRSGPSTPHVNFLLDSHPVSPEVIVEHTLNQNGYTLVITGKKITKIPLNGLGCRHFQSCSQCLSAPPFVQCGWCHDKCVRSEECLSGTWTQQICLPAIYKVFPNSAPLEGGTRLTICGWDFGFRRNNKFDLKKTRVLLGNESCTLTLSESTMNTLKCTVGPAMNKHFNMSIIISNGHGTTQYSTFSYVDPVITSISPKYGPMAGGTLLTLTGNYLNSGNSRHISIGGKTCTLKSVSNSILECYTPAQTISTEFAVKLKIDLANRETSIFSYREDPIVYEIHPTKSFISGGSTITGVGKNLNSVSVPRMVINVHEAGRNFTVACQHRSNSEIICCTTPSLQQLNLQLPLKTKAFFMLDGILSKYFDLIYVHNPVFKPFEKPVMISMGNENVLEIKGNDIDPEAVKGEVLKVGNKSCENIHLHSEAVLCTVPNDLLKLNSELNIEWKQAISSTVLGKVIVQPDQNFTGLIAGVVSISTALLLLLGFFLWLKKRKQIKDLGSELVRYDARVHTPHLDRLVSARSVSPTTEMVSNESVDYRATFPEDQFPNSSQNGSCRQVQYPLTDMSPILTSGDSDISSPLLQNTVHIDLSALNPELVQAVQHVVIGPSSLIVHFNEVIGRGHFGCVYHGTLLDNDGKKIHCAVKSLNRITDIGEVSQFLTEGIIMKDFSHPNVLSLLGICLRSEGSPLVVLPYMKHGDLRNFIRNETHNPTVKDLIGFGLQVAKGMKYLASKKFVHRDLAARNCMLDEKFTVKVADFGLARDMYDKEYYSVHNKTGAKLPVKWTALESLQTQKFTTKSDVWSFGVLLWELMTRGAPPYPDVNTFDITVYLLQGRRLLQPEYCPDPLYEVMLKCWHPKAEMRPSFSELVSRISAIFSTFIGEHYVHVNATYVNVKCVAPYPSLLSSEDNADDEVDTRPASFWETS
Sequence of SRSF protein kinase 1 (Homo sapiens) (Q96SB4 whole entry): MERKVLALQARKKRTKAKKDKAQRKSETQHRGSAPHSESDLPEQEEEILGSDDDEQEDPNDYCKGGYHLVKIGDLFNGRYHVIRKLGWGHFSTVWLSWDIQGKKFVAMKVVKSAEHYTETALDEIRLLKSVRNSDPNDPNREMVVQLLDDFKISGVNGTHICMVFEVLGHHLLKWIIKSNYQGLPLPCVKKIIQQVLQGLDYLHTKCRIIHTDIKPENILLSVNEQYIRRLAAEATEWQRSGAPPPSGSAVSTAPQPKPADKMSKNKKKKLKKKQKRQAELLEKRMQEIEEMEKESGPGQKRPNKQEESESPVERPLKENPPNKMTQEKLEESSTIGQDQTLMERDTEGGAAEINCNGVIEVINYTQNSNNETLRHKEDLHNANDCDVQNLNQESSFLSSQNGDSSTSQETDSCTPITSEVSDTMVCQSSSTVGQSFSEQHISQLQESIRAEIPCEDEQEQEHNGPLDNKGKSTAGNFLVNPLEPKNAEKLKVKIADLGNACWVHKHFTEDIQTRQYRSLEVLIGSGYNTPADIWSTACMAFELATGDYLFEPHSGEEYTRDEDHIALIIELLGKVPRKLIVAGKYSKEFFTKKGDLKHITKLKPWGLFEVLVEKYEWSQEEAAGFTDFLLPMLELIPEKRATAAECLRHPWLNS
Sequence of Interleukin-1 receptor-associated kinase 1 (Homo sapiens) (P51617 whole entry, looked up): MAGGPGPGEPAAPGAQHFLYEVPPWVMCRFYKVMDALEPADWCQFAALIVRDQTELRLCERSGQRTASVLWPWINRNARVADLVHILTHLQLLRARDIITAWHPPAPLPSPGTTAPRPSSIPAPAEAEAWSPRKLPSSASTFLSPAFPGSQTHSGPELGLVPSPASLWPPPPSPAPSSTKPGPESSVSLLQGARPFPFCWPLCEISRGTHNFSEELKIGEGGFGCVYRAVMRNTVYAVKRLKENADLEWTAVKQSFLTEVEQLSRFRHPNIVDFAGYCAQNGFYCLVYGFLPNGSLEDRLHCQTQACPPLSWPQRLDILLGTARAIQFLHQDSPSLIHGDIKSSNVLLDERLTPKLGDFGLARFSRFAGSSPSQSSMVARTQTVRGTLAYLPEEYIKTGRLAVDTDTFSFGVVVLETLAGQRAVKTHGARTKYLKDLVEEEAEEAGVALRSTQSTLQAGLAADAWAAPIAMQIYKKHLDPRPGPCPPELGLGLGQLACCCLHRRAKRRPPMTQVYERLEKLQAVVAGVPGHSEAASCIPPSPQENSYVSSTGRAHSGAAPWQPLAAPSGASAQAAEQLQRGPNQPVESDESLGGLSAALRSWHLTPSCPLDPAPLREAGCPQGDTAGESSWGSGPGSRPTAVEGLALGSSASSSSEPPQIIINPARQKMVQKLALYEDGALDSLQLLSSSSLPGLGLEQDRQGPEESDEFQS

The term inhibition denotes the relative decrease from the control value, in per cent. The residual activity is the signal under treatment as a percentage of the control signal. Read a low residual activity as little activity left. Take `CCN1CCN(Cc2ccc(NC(=O)c3ccc(C)c(/C=C/c4cnc5[nH]ccc5c4OC)c3)cc2C(F)(F)F)CC1`: the inhibition in [1] was 74%. In addition, in assay [2], the residual activity amounted to 4.6%.

For `CCN1CCN(Cc2ccc(NC(=O)c3ccc(C)c(Oc4ccnc5[nH]ccc45)c3)cc2C(F)(F)F)CC1`, the inhibition entry in assay [3], in [4] and in [6] was “inactive” in each case. Further, in [5], the inhibition at 10 µM is 2.9%.

Turning to `CNc1cc(Oc2cc(C(=O)Nc3cc(N4CCN(C)CC4)cc(C(F)(F)F)c3)ccc2C)ncn1`, the inhibition in [7] was 3.5%; in assay [8], 1%; in [9], -6.7%; in [10], -6.9%.
